“Also recorded” adds a separate entry of the source. Blank lines part the entries; values can stand above or below the compound they belong to.
Legend:
SPPL2a [1] = molecular target: T1, SPPL2a (Homo sapiens, UniProt Q8TCT8); experiment: FBA/SPPL2a co-transfected HEK 293T cell cleavage assay (Aβ ELISA, Western blot); format: cell-based
T1 construct: expressed in transfected cells; host or cells: HEK 293T
T1 sequence (Q8TCT8 26-520): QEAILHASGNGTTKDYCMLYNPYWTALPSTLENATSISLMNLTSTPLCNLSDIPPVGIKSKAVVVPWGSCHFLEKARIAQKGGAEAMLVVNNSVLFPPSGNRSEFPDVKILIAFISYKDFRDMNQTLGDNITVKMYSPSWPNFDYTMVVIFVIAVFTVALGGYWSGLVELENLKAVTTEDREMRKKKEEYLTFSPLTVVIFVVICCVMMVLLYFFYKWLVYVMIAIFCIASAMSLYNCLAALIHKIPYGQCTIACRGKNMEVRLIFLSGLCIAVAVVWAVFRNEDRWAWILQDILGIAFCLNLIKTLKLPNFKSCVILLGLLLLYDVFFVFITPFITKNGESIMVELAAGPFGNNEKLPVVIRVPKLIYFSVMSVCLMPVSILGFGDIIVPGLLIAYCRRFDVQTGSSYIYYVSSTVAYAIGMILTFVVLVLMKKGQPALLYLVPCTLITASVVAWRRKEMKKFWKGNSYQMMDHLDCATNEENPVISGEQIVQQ
Excerpt: (§1) Expression constructs in pcDNA6 for COOH-terminal FLAG (DYKDDDDK) and strep (WSHPQFEK) tagged SPPL2a, SPPL2b, hSPP and pSPP were generated as previously described. Untagged versions of all enzymes were also made and ligated into the pAG3 vector. Substrates (Fig 1) were designed as follows: FLAG-BRI2_1-81- Aβ1-25/K16A (FBA). The K16A mutation was incorporated to prevent potential α-secretase cleavage that would preclude ELISA based detection of the released COOH-terminal fragment. The substrate DNA was cloned into the expression vector pcDNA6. Constructs were confirmed by DNA sequencing. The overexpression of substrates was performed by transiently transfecting human embryonic kidney (HEK 293T) cells with or without SPP/SPPL vectors. Cells were grown in DMEM media supplemented with Hyclone 10% fetal bovine serum (GE, Logan, Utah, USA) and 1% penicillin/streptomycin (Life Technologies, Grand Island, NY, USA). Briefly, 2.7 μg DNA was applied to a 75% confluent 6 well plate (Corning, Tewksbury, MA, USA) using the polycation polyethylenimine (PEI) transfection method. Inhibitor testing experiments were conducted in 48 well plates with appropriately adjusted amounts of DNA and PEI and incubated 12–16 hours, after which the growth medium was replaced with fresh medium. DMSO (Sigma, St. Louis, MO, USA) and GSIs were added at the appropriate concentration. The GSIs, L685,458 and Compound W were purchased from Tocris (Tocris, Bristol, UK). (Z-LL)2 ketone, Compound E, DAPT, GSI II were purchased from Calbiochem (Merck Millipore, Billerica, MA, USA). LY-411,575 was synthesized by A. Fauq at the Mayo Clinic Chemical Core. Twenty-four hours later, the medium was collected for assay by ELISA and MS. A20 cells (TIB-208) (ATCC, Manassas, VA, USA) were cultured in RPMI-1640 medium (ATCC) supplied with 10% fetal bovine serum, 1% penicillin/streptomycin and 0.05 mM 2-mercaptoethanol (Life Technologies). At the density of 5x10^5 cells/ml, A20 cells were spun down at 1000 g for 2 min and resuspended in fresh medium supplied with DMSO or GSIs and incubated for 16 hr.
(§2) Sandwich ELISAs used for Aβ detection were performed as previously described. Briefly, Aβ and Aβ adducts with substrate TMD in conditioned media was captured with Ab5 antibody (human Aβ1–16 specific) and detected with horseradish peroxidase mAb 4G8 (Covance, Princeton, NJ, USA). Synthetic Aβ1–40 was used as standard. All ELISAs were developed with TMB substrate (KPL, Gaithersburg, Maryland, USA). Bis-Tris precast gels (Biorad, Hercules, CA, USA) were used for all SDS-PAGE. Monoclonal anti-FLAG M2 antibody (Sigma) and Aβ1–16 antibody 6E10 (Covance) were used for Western blotting. Antisera against SPPL2a, SPPL2b, hSPP and pSPP were generated as previously described and were used at dilution of 1:1000 for Western blotting. Anti-CD74 In-1 antibody (BD Bioscience, San Jose, CA, USA) was used for A20 cell lysate Western blotting at dilution of 1:1000.

hSPP = molecular target: T2, hSPP (Homo sapiens, UniProt Q8TCT9); experiment: FBA/hSPP co-transfected HEK 293T cell cleavage assay (Aβ ELISA, Western blot, IP/MS); format: cell-based; conditions: for IC50: HEK cells, 24 h, xAβ1-25/K16A by Aβ ELISA, mean ± standard error, read-out: IC50 on FBA/SPPL co-transfected cells
T2 construct: expressed in transfected cells; host or cells: HEK 293T
T2 sequence (Q8TCT9 1-377): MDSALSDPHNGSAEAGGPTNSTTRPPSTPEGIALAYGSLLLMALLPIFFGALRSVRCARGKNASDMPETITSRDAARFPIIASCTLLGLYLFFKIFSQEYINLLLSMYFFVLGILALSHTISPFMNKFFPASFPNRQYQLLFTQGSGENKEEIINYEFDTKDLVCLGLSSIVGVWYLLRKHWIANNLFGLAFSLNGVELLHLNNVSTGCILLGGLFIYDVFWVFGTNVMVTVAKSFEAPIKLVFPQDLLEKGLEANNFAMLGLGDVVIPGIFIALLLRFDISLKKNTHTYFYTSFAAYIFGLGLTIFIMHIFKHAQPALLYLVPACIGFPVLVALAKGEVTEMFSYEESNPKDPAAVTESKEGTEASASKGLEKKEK
Excerpt: as §1, §2
(§3) Immunoprecipitation and mass spectrometry of xAβ1–25 in conditioned media were performed as previously described. In this study, 10 ml conditioned media were used for each experiment. ICDs were immunoprecipitated with anti-FLAG M2 magnetic beads. Cells from 10 cm dished treated with DMSO or 20 μM LY-411,575 were used for each test.

SPPL2b = molecular target: T3, SPPL2b (Homo sapiens, UniProt Q8TCT7); experiment: FBA/SPPL2b co-transfected HEK 293T cell cleavage assay (Aβ ELISA, Western blot, IP/MS); format: cell-based
T3 construct: expressed in transfected cells; host or cells: HEK 293T
T3 sequence (Q8TCT7 26-592): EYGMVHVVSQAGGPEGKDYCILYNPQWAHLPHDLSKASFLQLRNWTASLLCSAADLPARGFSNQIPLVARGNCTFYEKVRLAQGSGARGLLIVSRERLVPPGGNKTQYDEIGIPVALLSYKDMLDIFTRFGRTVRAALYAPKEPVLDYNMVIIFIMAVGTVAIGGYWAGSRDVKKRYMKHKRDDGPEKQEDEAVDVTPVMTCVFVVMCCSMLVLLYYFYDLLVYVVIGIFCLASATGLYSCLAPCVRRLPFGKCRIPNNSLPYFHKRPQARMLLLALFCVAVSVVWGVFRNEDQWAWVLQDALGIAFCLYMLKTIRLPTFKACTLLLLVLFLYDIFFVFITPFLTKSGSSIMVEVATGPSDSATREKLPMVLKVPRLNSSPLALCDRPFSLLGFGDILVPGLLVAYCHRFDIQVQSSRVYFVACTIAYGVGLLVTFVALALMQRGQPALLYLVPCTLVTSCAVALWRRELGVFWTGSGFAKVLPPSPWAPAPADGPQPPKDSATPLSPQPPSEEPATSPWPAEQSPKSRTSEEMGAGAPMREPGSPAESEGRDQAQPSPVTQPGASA
Excerpt: as §1, §2, §3

pSPP = pSPP (Plasmodium falciparum, UniProt Q8IKQ9); experiment: FBA/pSPP co-transfected HEK 293T cell cleavage assay (Aβ ELISA, Western blot, IP/MS); format: cell-based, human; conditions: for inhibition of xAβ1-25/K16A secretion (in words): 25 μM, ELISA
Excerpt: as §1, §2, §3

SPPL2a [2] = test system: T4, SPPL2a; experiment: Endogenous CD74 NTF P8 turnover in non-overexpressing A20 cells (Western blot, In-1 antibody); format: cell-based, mouse
T4 construct: endogenous SPPL2a cleavage of CD74 in a murine B-Cell line; host or cells: A20 mouse B lymphocyte cells
Method: as §1, with “Untagged” for “Expression constructs in pcDNA6 for COOH-terminal FLAG (DYKDDDDK) and strep (WSHPQFEK) tagged SPPL2a, SPPL2b, hSPP and pSPP were generated as previously described. Untagged”
as §2

SPP = test system: SPP; parameters: method as in PMID 15252014, PMID 19337374, PMID 12621027; conditions: cited from earlier work
[3] = HEK cells, 24 h, xAβ1-25/K16A by Aβ ELISA, mean ± standard error, read-out: IC50 on FBA/SPPL co-transfected cells
[4] = HEK-293T, 25 μM, ELISA, DMSO = 100%, read-out: inhibition of the SPP/SPPLs
[5] = number in parenthesis in Table 3

Sequence of pSPP (Q8IKQ9 entry or part of it): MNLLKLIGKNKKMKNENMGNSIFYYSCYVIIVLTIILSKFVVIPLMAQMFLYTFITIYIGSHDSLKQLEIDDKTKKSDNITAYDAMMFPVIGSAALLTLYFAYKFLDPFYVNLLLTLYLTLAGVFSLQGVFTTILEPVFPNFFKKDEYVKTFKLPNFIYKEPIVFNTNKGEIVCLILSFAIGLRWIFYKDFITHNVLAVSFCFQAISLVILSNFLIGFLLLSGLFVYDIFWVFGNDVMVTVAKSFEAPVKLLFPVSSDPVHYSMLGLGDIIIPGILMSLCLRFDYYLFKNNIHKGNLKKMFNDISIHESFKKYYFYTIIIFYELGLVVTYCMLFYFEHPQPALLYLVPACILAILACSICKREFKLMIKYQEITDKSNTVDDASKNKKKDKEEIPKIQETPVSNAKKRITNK

Compound: O=C(O)c1cc(Oc2ccc([N+](=O)[O-])cc2)cc(Oc2ccc([N+](=O)[O-])cc2)c1 [Comp W, Compound W]
inhibition of xAβ1-25/K16A secretion (in words) (SPPL2a [1]; 25 μM, ELISA): does not show inhibition
inhibition of xAβ1-25/K16A secretion (in words) (hSPP; 25 μM, ELISA): does not show inhibition
inhibition of xAβ1-25/K16A secretion (in words) (SPPL2b; 25 μM, ELISA): does not show inhibition
inhibition of xAβ1-25/K16A secretion (in words) (pSPP; pSPP): does not show inhibition

inhibition of FBA cleavage by Western blot (hSPP; Fig 3C lower panel): efficiently inhibited
IC50 (hSPP): 0.948 ± 0.093 µM
inhibition of FBA cleavage (10 kD ICD) by Western blot (SPPL2b; Fig 3C upper panel): slightly reduce
Compound: C[C@H](NC(=O)Cc1cc(F)cc(F)c1)C(=O)N[C@@H]1C(=O)N(C)c2ccccc2-c2ccccc21 [DBZ]
inhibition of xAβ1-25/K16A secretion (in words) (hSPP; 25 μM, ELISA): inhibited; also recorded: selectively inhibit hSPP cleavage
dose response of P8 fragment stabilization (in words) (SPPL2a [2]; different doses): stabilized the P8 fragment in a dose dependent manner; also recorded: much weaker inhibition
concentration at which effect was first seen (SPPL2a [2]; dose response): 1 µM

Compound: CC(C)C[C@H](NC(=O)[C@H](Cc1ccccc1)C[C@@H](O)[C@H](Cc1ccccc1)NC(=O)OC(C)(C)C)C(=O)N[C@@H](Cc1ccccc1)C(N)=O [L685,458]
inhibition of xAβ1-25/K16A secretion (in words) (SPPL2a [1]; 25 μM, ELISA): largely inhibited
IC50 (SPPL2a [1]; [3]): 0.57 ± 0.09 µM
inhibition at 25 µM (SPPL2a [1]; [4]): > 90%
rank order of inhibition (SPPL2a [1]; [5]): 3
inhibition of SPP activity (SPP): inhibit the activity of SPP
inhibition of xAβ1-25/K16A secretion (in words) (hSPP; 25 μM, ELISA): largely inhibited
IC50 (hSPP): 0.319 ± 0.091 µM
inhibition at 25 µM (hSPP; [4]): > 90%
rank order of inhibition (hSPP; [5]): 2
inhibition of xAβ1-25/K16A secretion (in words) (SPPL2b; 25 μM, ELISA): largely inhibited
IC50 (SPPL2b; [3]): 0.876 ± 0.133 µM
inhibition at 25 µM (SPPL2b; [4]): > 90%
rank order of inhibition (SPPL2b; [5]): 1
IC50 (pSPP): 0.161 ± 0.097 µM
inhibition at 25 µM (pSPP; HEK-293T, read-out: inhibition of the SPP/SPPLs): > 90%
inhibition of xAβ1-25/K16A secretion (in words) (pSPP; pSPP): largely inhibited
rank order of inhibition (pSPP; pSPP, number in parenthesis in Table 3): 1
